“And” between values parts separate entries of the source, which are not always exact repeats. Identical values can stand only once.

The test system of this test is JNJ-2901- and JNJ-4052-resistant M. tuberculosis ΔcydAB strains (QcrA/QcrB mutants). The class given is cell-based, Mycobacterium tuberculosis.

Consider `NNC(=O)c1ccncc1` [Isoniazid, isoniazid], for which the “MIC50 fold change from parental strain” value was 1 fold and 0.5 fold.

The record behind these values is PMC12546632, “The role of cytochrome bc1 inhibitors in future tuberculosis treatment regimens” (Nature Communications, 2025).
